Experimental data: patent EP0167710A1, “Use of benomyl for the manufacture of a medicament against ichthyophthyriasis” (Eduro World Investments Inc., priority 1984, dated 1986)

Legend:
[1] = tested on: Ichthiophthyriasis auslösenden Parasiten; experiment: Treatment of Ichthyophthyriasis-infected fish in aquaria (Beispiel 1); type: in vivo; conditions: 6 days after start of treatment, 16 Sumatrabarben per 40 Liter tank, Benomyl 0,2 mg/ml, Malachitgrün 0,03 mg/ml, repeated at half dose after 3 bis 5 Tagen; for Ausfälle: 25 + 1°C
Description: (§1) Unter gleichen Bedingungen wurden in drei Fischbehältern A, B und C (40 Liter) je 16 Sumatrabarben ausgesetzt. Die Wassertemperatur betrug 25 + 1°C. Nach eintägiger Haltung wurden die Fische in Kontakt mit Ichthiophthyriasis auslösenden Parasiten gebracht. Nach visuell sichtbarer Infektion wurden zugesetzt: • Im Aquarium A: Reines Wasser • Im Aquarium B: 1-(N-Butylcarbamoyl)-2-(methoxycarbonyl-amino)-benzimidazol (als pulverförmiges Gemisch. Konzentration an Wirkstoff 0,2 mg/ml) • Im Aquarium C: Malachitgrün (Wirkstoffkonzentrat-0,03 mg/ml)
(§2) Die Zugabe wurde mit der halben Dosierung nach 3 bis 5 Tagen wiederholt.

[2] = tested on: Ichthiophthyriasis auslösenden Parasiten; experiment: Treatment of Ichthyophthyriasis-infected fish in aquaria (Beispiel 2); type: in vivo; conditions: after 7 Behandlungstagen; 18 Neonsalmler per tank; conditions of Beispiel 1, repeat dose equal to the initial dose
Description: as §1, §2
Unter den Bedingungen des Beispiels 1 wurden jeweils 18 Neonsalmler behandelt. Die Nachdosierung erfolgte jedoch in Höhe der Anfangsdosierung.

Row | Structure (SMILES) | Ausfälle [1] [Tieren pro Becken] | Schuppenbild [1] | Ausfälle [2]
1 | CCCCNC(=O)n1c(NC(=O)OC)nc2ccccc21 [Benomyl] | 2 | normalisiert | Keine Ausfälle
2 | CN(C)c1ccc(C(=C2C=CC(=[N+](C)C)C=C2)c2ccccc2)cc1 [Malachitgrün] | 2 | normalisiert | Ein Ausfall
